The text below walks through data of ChEMBL document CHEMBL1148244, “Inactivation of gamma-aminobutyric acid aminotransferase by (S)-4-amino-4,5-dihydro-2-furancarboxylic acid does not proceed by the expected aromatization mechanism” (Bioorg Med Chem Lett, 2004).

The target in the experiment is 4-aminobutyrate aminotransferase (Sus scrofa) (UniProt P80147). Description: Kinact for pyridoxal 5'-phosphate (PLP)-dependent Gamma-amino-N-butyrate transaminase at pH 7.4.

Each structure is given as a SMILES string.

Sequence of 4-aminobutyrate aminotransferase (Sus scrofa) (P80147 whole entry, looked up): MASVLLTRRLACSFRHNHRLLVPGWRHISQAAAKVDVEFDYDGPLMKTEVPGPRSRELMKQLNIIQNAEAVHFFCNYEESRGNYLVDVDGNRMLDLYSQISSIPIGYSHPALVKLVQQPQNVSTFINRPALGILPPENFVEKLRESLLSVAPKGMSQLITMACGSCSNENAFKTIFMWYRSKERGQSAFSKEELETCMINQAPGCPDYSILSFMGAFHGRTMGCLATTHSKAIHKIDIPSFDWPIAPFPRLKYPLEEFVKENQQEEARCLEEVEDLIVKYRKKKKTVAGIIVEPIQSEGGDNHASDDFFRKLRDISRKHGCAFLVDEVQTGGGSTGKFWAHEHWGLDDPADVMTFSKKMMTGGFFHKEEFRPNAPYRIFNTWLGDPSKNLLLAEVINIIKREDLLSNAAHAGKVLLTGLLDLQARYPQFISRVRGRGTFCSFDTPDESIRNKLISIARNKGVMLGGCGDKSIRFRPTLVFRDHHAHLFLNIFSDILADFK

`NC1C=C(C(=O)O)OC1` (stereo unspecified) displayed a K inact of 2.4 min⁻¹.
